The test system of one experiment is Oilseed Rape. The experiment in a line: Test C postemergence: oilseed rape. It counts as in vivo. The method, boiled down: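 Plants at the 1- to 4-leaf stage (2 to 18 cm tall), grown in pots of peat moss/vermiculite planting medium, received postemergence applications of the formulated test chemicals. After 13 to 15 days in a greenhouse, injury was scored visually versus controls from 0 (no effect) to 100 (complete control).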

For the next experiment, the system named is Barnyardgrass. Description: Test C postemergence: barnyardgrass. Type of experiment: in vivo, Echinochloa crus-galli. To be noted: 125 g ai/ha, scale 0 to 100, 0 no effect, 100 complete control. From the text: Seeds of plant species selected from blackgrass (Alopecurus myosuroides), bromegrass, downy (downy bromegrass, Bromus tectorum), foxtail, green (green foxtail, Setaria viridis), ryegrass, Italian (Italian ryegrass, Lolium multiflorum), winter wheat (Triticum aestivum), wild oat (Avena fatua), galium (catchweed bedstraw, Galium aparine), bermudagrass (Cynodon dactylon), surinam grass (Brachiaria decumbens), cocklebur (common cocklebur, Xanthium strumarium), corn (Zea mays), large crabgrass (Digitaria sanguinalis), woolly cupgrass (Eriochloa villosa), foxtail, giant (giant foxtail, Setaria faberii), goosegrass (Eleusine indica), johnsongrass (Sorghum halepense), kochia (Kochia scoparia), lambsquarters (Chenopodium album), morningglory (Ipomoea coccinea), nightshade (eastern black nightshade, Solanum ptycanthum), nutsedge, yellow (yellow nutsedge, Cyperus esculentus), pigweed (Amaranthus retroflexus), ragweed (common ragweed, Ambrosia elation), soybean (Glycine max), common (oilseed) sunflower (Helianthus annuus), Russian thistle (Salsola kali) and velvetleaf (Abutilon theophrasti) were planted into a blend of loam soil and sand and treated preemergence with test chemicals formulated in a non-phytotoxic solvent mixture which included a surfactant.
At the same time, plants selected from these crop and weed species and also barley (winter barley, Hordeum vulgare), canarygrass (Phalaris minor), chickweed (common chickweed, Stellaria media) windgrass (Apera spica-venti) and deadnettle (henbit deadnettle, Lamium amplexicaule) were planted in pots containing Redi-Earth® planting medium (Scotts Company, 14111 Scottslawn Road, Marysville, Ohio 43041) comprising spaghnum peat moss, vermiculite, wetting agent and starter nutrients and treated with postemergence applications of test chemicals formulated in the same manner. Plants ranged in height from 2 to 18 cm (1- to 4-leaf stage) for postemergence treatments.
Treated plants and controls were maintained in a greenhouse for 13 to 15 days, after which time all species were compared to controls and visually evaluated. Plant response ratings, summarized in Table C, are based on a scale of 0 to 100 where 0 is no effect and 100 is complete control. A dash (-) response means no test result.

Experiment [1] deals with beggarticks (hairy beggarticks, Bidens pilosa). The experiment in a line: Test F pre-/postemergence: beggarticks. It counts as in vivo. The method, boiled down:
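0–100 visual control scores, taken 14–21 d after application in the greenhouse. Preemergence treatment was made to silt loam soil at sowing. Postemergence sprays hit 1- to 4-leaf plants (2–18 cm) in peat/vermiculite mix. Surfactant-containing non-phytotoxic solvent served as the vehicle.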

Experiment [2] relates to pigweed, palmer (palmer pigweed, Amaranthus palmeri). The experiment in a line: Test F pre-/postemergence: pigweed, palmer. It counts as in vivo. The text has this:
Seeds of plant species selected from corn (Zea mays), soybean (Glycine max), velvetleaf (Abutilon theophrasti), lambsquarters (Chenopodium album), poinsettia, wild (wild poinsettia, Euphorbia heterophylla), pigweed, palmer (palmer pigweed, Amaranthus palmeri), waterhemp (common waterhemp, Amaranthus rudis), surinam grass (Brachiaria decumbens), crabgrass, Brazil (Brazilian crabgrass, Digitaria horizontalis), panicum, fall (fall panicum Panicum dichotomiflorum), crabgrass, large (large crabgrass, Digitaria sanguinalis), foxtail, giant (giant foxtail, Setaria faberii), foxtail, green (green foxtail Setaria viridis), goosegrass (Eleusine indica), ragweed (common ragweed, Ambrosia elatior), barnyardgrass (Echinochloa crus-galli), sandbur (southern sandbur, Cenchrus echinatus), arrowleaf sida (Sida rhombifolia), ryegrass, Italian (Italian ryegrass, Lolium multiflorum), dayflower, VA (Virginia (VA) dayflower, Commelina virginica), field bindweed (Convolvulus arvensis), cocklebur (common cocklebur, Xanthium strumarium), morningglory (Ipomoea coccinea), nightshade (eastern black nightshade, Solanum ptycanthum), kochia (Kochia scoparia), nutsedge, yellow (yellow nutsedge, Cyperus esculentus), johnsongrass (Sorghum halepense), smartweed (ladysthumb smartweed, Polygonum persicaria), and beggarticks (hairy beggarticks, Bidens pilosa), were planted into a silt loam soil and treated preemergence with test chemicals formulated in a non-phytotoxic solvent mixture which included a surfactant. At the same time, plants selected from these crop and weed species and also pigweed (Amaranthus retroflexus), waterhemp_RES1 (ALS/Triazine resistant common waterhemp, Amaranthus rudis) and waterhemp_RES2 (ALS/HPPD resistant common waterhemp, Amaranthus rudis) were planted in pots containing a planting medium comprising spaghnum peat moss, vermiculite, wetting agent and starter nutrients treated with postemergence applications of some of the test chemicals formulated in the same manner. Plants ranged in height from 2 to 18 cm for postemergence treatments (1- to 4-leaf stage).
Treated plants and controls were maintained in a greenhouse for 14 to 21 days, after which time all species were compared to controls and visually evaluated. Plant response ratings, summarized in Table E, are based on a scale of 0 to 100 where 0 is no effect and 100 is complete control. A dash (-) response means no test result.

[3] abbreviates: Postemergence, 4 g ai/ha, scale 0 to 100.
Where [4] appears, read: Postemergence, 8 g ai/ha, scale 0 to 100.
Setting [5] is: Postemergence, 16 g ai/ha, scale 0 to 100.
The mark [6] stands for this setting: Postemergence, 31 g ai/ha, scale 0 to 100.
Where [7] appears, read: Postemergence, 62 g ai/ha, scale 0 to 100.
Setting [8] is: Preemergence, 4 g ai/ha, scale 0 to 100, 0 no effect, 100 complete control.
Where [9] appears, read: Preemergence, 8 g ai/ha, scale 0 to 100, 0 no effect, 100 complete control.
[10] abbreviates: Preemergence, 16 g ai/ha, scale 0 to 100 (0 no effect, 100 complete control).
Setting [11] is: Preemergence, 31 g ai/ha, scale 0 to 100 (0 no effect, 100 complete control).

With `Cc1nn(-c2ccc(C(F)(F)F)c(F)c2)nc1Cc1ccnc(C(F)(F)F)c1` [Compound 162], the “Plant response rating, Oilseed Rape” value in the experiment with Oilseed Rape (31 g ai/ha, scale 0 to 100 (0 no effect, 100 complete control)) was found to be 90; in the experiment with Oilseed Rape (62 g ai/ha, scale 0 to 100 (0 no effect, 100 complete control)) it was 90; with Oilseed Rape (250 g ai/ha, scale 0 to 100), 95. Besides, the “Plant response rating, Barnyardgrass” value in the experiment on Barnyardgrass was 90. The “Plant response rating, Beggarticks” value in experiment [1] (setting [3]) turned out to be 15; in experiment [1] (setting [4]), 20; in experiment [1] (setting [5]) it was 25; in experiment [1] (setting [6]), 25; in experiment [1] (setting [7]), 30; in experiment [1] (setting [8]), 0. The “Plant response rating, Beggarticks” value is on record as 0 in experiment [1] (setting [9]); 0 in experiment [1] (setting [10]); 0 in experiment [1] (setting [11]); 0 in experiment [1] (Preemergence, 62 g ai/ha, scale 0 to 100). The “Plant response rating, Pigweed, Palmer” value is 70 in experiment [2] (setting [3]); 70 in experiment [2] (setting [4]); 80 in experiment [2] (setting [5]); 90 in experiment [2] (setting [6]); 90 in experiment [2] (setting [7]); 0 in experiment [2] (setting [8]). The figures for the “Plant response rating, Pigweed, Palmer” value in experiment [2] (setting [9]), in experiment [2] (setting [10]) and in experiment [2] (setting [11]) were 25, 98 and 100, respectively.

Source of the values: patent publication US9302999B2, “Substituted triazoles as herbicides” (E. I. DU PONT DE NEMOURS AND COMPANY, priority 2012, dated 2016).
